Patent US20140343095A1, “Methods of Diagnosing and Treating Multiple Sclerosis” (The Brigham and Women's Hospital, Inc., priority 2009, published 2014)

Assays:
PARP-1 [1] = biological target: T1, PARP-1 (Homo sapiens, UniProt P09874); experiment: PARP-1 activity in a cell-free system with oxysterol-pretreated DNA; assay type: biochemical
Method: (§1) FIGS. 4A-D show the results of activation of microglia, macrophages and astrocytes by 15-HC. 4A, a bar graph showing PARP-1 activity in a cell-free system where recombinant PARP-1 was incubated with DNA which as been pretreated with 15-HC or 7-KC. Non-pretreated DNA was used as a negative control and ssb-DNA as a positive control. Data is shown as Mean±SEM. 4B, a pair of bar graphs showing PARP-1 activity measured in microglia, macrophages or astrocytes incubated with 15-HC or 7-KC. The data is shown as the fold of change between vehicle and lipid-treated cells (Mean±SEM). 4C, a pair of bar graphs showing percent inhibition of PARP-1 activity in microglia, macrophages or astrocytes activated with 15-HC or 7-KC […] in the presence of 5-AIQ. 4D, a table showing levels of TNF-α, CCL-2 and NO secretion by 15-HC or 7-KC treated microglia, macrophages or astrocytes (Mean±SEM).
Thus, the effect of 15-HC on PARP-1 activity was investigated using an in vitro system.
Target sequence in this assay (P09874 whole entry, species assumed): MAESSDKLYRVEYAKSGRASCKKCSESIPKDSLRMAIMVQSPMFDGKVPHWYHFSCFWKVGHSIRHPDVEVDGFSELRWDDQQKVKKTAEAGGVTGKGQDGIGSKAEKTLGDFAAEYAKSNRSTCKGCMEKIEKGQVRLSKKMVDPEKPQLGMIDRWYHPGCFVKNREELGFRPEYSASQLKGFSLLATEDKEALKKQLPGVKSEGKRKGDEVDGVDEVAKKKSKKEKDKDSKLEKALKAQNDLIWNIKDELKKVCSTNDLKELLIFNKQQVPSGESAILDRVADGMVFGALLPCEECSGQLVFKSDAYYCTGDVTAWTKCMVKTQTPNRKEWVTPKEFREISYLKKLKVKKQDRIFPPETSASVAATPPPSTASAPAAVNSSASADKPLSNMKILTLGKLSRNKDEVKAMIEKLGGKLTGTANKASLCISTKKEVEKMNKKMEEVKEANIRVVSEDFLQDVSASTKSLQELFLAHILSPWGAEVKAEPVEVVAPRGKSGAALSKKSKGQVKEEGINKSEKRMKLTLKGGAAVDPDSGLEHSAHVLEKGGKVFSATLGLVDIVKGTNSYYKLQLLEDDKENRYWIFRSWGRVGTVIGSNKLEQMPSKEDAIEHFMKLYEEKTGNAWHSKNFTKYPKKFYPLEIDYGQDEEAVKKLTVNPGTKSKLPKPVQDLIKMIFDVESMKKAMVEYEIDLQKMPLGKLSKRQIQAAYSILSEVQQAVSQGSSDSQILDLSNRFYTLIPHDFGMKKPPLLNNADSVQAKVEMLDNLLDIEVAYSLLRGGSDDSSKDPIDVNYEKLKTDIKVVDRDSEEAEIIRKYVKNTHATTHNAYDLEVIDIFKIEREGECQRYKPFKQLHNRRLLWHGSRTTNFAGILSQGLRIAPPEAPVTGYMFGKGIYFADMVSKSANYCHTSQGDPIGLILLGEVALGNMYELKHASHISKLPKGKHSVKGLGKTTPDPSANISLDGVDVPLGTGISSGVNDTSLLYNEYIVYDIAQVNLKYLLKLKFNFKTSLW

PARP-1 [2] = biological target: PARP-1 (Mus musculus, UniProt P11103); experiment: Cellular PARP-1 activity in microglia, macrophages or astrocytes; assay type: cell-based; design: host or cells: C8B4 microglia, C8-D1A astrocytes, Raw 264.7 macrophages
Method: 5A, a bar graph showing the time course of microglial PARP-1 activation by 15-oxysterols or 7-KC. PARP-1 activity is shown as Mean±SEM. […] (Mean±SEM) 5C, a bar graph showing activation of microglial PARP-1 by 15-HC in the presence of kinase inhibitors (Mean±SEM).
6A, a set of three bar graphs showing PARP-1 activity in microglia, macrophages or astrocytes activated with 15-HC in the presence of blocking antibodies to TLR2 or TLR4, or isotype controls (Mean±SEM).
PARP-1 activity was measured using PARP HT Universal Colorimetric Kit (Trevigen, MD, USA), following manufacturer instructions.
Cells were cultured with DMEM supplemented with 10% fetal bovine serum, 2 mM L-glutamine, 25 mM HEPES, and 1 mM sodium pyruvate. Cells in logarithmic growth were treated with 1 μg/ml of 15-HC for 1, 5, 15, and 30 minutes in serum-free medium. Blocking antibodies (Ebioscience, San Diego, Calif., USA) were added in some experiments at a final concentration of 10 ug/ml.

human monocytes = experiment: TNFa and CCL2 production by human monocytes; assay type: cell-based; conditions: 1 ug/ml 15-HC
Method: FIGS. 10A and 10B are bar graphs showing TLR2 mediated activation of PARP-1 by 15-HC. PARP-1 enzymatic activity (10A) and TNFalpha and CCL2 (10B) of PBMCs incubated with 15-HC alone, or in combination with AIQ, blocking antibodies to TLR2 or IC control.
To investigate whether the TLR2/PARP-1 axis is functional in human we activated PBMCs from healthy controls with 15-HC, in the presence or not of PARP-1 or TLR2 inhibitors. […] Thus, 15-HC activates PARP-1 in human monocytes by a TLR2 dependent pathway that results in the release of the pro-inflammatory mediators TNFa and CCL2.

PARP-1 [3] = biological target: T1, PARP-1; experiment: PARP-1 enzymatic activity in human PBMCs (PARP HT Universal Colorimetric Kit); assay type: cell-based; design: endogenous in cells; host or cells: human PBMCs / monocytes / dendritic cells / T and B cells from healthy controls and MS patients; conditions: healthy controls, 1 ug/ml 15-HC
Method: PARP-1 enzymatic activity (10A) and TNFalpha and CCL2 (10B) of PBMCs incubated with 15-HC alone, or in combination with AIQ, blocking antibodies to TLR2 or IC control.
To investigate whether the TLR2/PARP-1 axis is functional in human we activated PBMCs from healthy controls with 15-HC, in the presence or not of PARP-1 or TLR2 inhibitors.
Target sequence in this assay (P09874 whole entry): as the sequence (P09874 whole entry, species assumed) above

[4] = tested on: microglia, macrophages or astrocytes; experiment: TNF-α, CCL-2 and NO secretion by microglia, macrophages or astrocytes; assay type: cell-based, mouse; conditions: microglia, macrophages or astrocytes incubated with 15-HC
Method: as §1
The effect of 15-HC on the activity of cellular PARP-1 was then investigated. […] Thus, 15-HC activates microglia, macrophages and astrocytes through a PARP-1-dependent mechanism.

PARP-1 [5] = experiment: FACS PARP-1 activity in innate and adaptive immune cells treated with HSP60 or 15-HC; assay type: cell-based, human; conditions: HSP60 1, 5, 10 ng/ml, 15-HC 1, 5, 10 ug/ml
Source text: FIGS. 17A-C are bar graphs showing that 15-HC, but not HSP60, activates PARP-1 in cells of the innate immune system. Mean PARP-1 activity as determined by FACS in classical monocytes (17A), inflammatory monocytes (17B) and dendritic cells (17C) of healthy controls (HC) treated with activated with HSP60, 15-HC or left untreated. The data are shown as mean fluorescence intensity (MFI)±SD of 5 samples/group.
FIGS. 18A-C are bar graphs showing that both 15-HC and HSP60 activate PARP-1 in cells of the adaptive immune system. Mean PARP-1 activity as determined by FACS in CD4+ T cells (18A), CD8+ T cells (18B) and B cells (18C) of healthy controls (HC) treated with activated with HSP60, 15-HC or left untreated. The data are shown as mean fluorescence intensity (MFI)±SD of 5 samples/group.
A new FACS-based method was developed to detect PARP-1 activation based on the intracellular detection of the PARP-1 product PAR with specific antibodies. Briefly, the cells were incubated with antibodies to CD16/32 to block unspecific antibody binding, and then stained for surface markers. […] The samples were then analyzed by FACS.
To investigate whether the increased activity of the TLR2/PARP-1 axis in SPMS patients resulted from increased levels of TLR2 ligands, the levels of 15-HC and HSP60 were measured in serum samples from healthy controls, RRMS and SPMS patients. […]

PARP-1 (Mus musculus, UniProt P11103), sequence (P11103 whole entry): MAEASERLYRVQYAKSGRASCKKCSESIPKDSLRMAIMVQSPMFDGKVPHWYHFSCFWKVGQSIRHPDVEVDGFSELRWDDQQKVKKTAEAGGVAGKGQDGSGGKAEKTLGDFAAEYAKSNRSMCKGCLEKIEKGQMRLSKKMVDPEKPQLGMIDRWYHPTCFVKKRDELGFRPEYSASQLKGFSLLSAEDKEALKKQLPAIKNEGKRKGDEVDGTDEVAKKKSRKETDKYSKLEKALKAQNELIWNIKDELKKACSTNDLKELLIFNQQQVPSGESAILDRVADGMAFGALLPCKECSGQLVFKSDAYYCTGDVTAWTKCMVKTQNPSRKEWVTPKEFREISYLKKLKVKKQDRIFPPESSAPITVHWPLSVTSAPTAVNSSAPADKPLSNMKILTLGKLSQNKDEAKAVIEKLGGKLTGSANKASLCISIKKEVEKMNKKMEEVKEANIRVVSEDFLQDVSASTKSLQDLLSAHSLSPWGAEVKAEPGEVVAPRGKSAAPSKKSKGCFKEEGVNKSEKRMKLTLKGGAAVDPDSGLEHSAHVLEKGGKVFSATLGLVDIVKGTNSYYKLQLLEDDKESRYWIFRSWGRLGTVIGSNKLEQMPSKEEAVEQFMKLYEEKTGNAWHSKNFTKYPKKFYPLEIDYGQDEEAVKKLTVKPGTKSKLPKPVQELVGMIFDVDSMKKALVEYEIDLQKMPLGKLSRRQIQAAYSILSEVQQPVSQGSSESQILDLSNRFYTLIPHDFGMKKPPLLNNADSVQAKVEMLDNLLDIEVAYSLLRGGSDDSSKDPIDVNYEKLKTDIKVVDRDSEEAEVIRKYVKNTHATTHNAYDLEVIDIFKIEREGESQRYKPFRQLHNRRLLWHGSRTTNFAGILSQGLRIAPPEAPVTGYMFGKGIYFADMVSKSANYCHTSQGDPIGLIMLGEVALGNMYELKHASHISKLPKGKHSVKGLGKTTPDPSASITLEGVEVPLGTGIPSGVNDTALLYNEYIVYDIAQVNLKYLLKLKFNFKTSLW

15-hydroxycholestene [15-HC]
PARP-1 activity, oxysterol alone (PARP-1 [1]; recombinant PARP-1 incubated with 15-HC alone): did not have a significant effect | PARP-1 activity, DNA pre-incubated with oxysterol (PARP-1 [1]; recombinant PARP-1 plus DNA pretreated with 15-HC): levels comparable to those achieved with 7-KC or single strand break DNA | incubation time resulting in activation of PARP-1 (PARP-1 [2]; macrophages or microglia): 5 min | activation of cellular PARP-1 (PARP-1 [2]; macrophages, microglia or astrocytes): dose-dependent activation | production of TNFa and CCL2 (human monocytes): resulted in production | PARP-1 enzymatic activity in human PBMCs (PARP-1 [3]): results in the activation | secretion of NO, CCL-2 and TNF-α [4]: resulted in the secretion | PARP-1 activation in cells of the adaptive immune system (FIG. 18) (PARP-1 [5]; CD4+ T cells, CD8+ T cells, B cells of healthy controls): could activate | PARP-1 activation in cells of the innate immune system (FIG. 17) (PARP-1 [5]; classical monocytes, inflammatory monocytes, dendritic cells of healthy controls): only 15-HC could activate
